In assay [1] the target is Serine/threonine-protein kinase MRCK beta (Homo sapiens) (UniProt Q9Y5S2). Put plainly: Inhibition of MRCKb in human A-375 cells at 0.5 uM by KiNativ Profiling analysis relative to control. Format: cell-based.
Assay [2] has as its target Serine/threonine-protein kinase B-raf (Homo sapiens, UniProt P15056). Put plainly: Inhibition of BRAF (unknown origin) Lys2 labeling site by KiNativ Profiling analysis.
The target in assay [3] is T1, Ephrin type-B receptor 2 (Homo sapiens) (UniProt P29323).
T1 sequence (whole entry): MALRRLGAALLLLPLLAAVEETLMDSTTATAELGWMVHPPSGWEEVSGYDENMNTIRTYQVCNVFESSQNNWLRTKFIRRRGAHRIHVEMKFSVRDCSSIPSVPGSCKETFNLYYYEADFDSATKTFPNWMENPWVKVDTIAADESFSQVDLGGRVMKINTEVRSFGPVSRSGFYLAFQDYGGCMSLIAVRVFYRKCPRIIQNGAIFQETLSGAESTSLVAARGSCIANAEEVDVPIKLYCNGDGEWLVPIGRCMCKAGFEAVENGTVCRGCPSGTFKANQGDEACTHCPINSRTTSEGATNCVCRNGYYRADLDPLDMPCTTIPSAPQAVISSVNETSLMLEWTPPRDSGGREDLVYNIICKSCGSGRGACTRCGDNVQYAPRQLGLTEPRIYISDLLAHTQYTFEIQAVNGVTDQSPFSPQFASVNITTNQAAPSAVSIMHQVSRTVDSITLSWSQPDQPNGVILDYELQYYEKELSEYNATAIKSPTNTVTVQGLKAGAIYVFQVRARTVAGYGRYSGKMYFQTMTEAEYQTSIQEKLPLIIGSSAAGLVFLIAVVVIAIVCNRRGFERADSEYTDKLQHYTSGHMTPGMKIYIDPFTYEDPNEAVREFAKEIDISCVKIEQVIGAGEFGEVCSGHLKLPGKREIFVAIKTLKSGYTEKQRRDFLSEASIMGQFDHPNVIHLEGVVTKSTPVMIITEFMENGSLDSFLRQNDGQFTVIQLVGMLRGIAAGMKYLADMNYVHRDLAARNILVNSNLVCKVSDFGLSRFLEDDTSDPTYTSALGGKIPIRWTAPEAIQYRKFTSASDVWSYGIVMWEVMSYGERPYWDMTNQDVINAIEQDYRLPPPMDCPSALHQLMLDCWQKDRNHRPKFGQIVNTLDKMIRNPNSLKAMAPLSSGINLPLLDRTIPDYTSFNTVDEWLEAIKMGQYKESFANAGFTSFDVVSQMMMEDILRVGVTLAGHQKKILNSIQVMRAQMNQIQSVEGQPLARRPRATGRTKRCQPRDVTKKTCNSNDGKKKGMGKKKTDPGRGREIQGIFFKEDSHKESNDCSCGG
Put plainly: Inhibition of EphB2 ACT labeling site in human A-375 cells at 0.05 uM by KiNativ Profiling analysis relative to control. The assay is classed as cell-based.

Assay [4] concerns the target T2, Mitogen-activated protein kinase 12 (Homo sapiens) (UniProt P53778).
T2 sequence (whole entry): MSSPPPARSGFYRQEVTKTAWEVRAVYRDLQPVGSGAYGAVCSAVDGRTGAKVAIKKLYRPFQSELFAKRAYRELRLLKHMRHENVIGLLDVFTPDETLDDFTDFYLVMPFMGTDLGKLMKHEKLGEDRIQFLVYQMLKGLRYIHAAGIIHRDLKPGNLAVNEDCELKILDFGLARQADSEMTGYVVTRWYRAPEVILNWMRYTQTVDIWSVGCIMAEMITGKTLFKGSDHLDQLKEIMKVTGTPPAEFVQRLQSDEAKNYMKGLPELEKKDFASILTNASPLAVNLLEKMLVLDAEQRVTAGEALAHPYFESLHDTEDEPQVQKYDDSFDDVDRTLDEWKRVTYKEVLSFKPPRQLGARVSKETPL
Put plainly: Inhibition of p38 gamma Lys2 labeling site in human A-375 cells at 5 uM by KiNativ Profiling analysis relative to control. The assay is classed as cell-based.

Assay [5] concerns the target T3, Serine/threonine-protein kinase TAO2 (Homo sapiens) (UniProt Q9UL54).
T3 sequence (whole entry): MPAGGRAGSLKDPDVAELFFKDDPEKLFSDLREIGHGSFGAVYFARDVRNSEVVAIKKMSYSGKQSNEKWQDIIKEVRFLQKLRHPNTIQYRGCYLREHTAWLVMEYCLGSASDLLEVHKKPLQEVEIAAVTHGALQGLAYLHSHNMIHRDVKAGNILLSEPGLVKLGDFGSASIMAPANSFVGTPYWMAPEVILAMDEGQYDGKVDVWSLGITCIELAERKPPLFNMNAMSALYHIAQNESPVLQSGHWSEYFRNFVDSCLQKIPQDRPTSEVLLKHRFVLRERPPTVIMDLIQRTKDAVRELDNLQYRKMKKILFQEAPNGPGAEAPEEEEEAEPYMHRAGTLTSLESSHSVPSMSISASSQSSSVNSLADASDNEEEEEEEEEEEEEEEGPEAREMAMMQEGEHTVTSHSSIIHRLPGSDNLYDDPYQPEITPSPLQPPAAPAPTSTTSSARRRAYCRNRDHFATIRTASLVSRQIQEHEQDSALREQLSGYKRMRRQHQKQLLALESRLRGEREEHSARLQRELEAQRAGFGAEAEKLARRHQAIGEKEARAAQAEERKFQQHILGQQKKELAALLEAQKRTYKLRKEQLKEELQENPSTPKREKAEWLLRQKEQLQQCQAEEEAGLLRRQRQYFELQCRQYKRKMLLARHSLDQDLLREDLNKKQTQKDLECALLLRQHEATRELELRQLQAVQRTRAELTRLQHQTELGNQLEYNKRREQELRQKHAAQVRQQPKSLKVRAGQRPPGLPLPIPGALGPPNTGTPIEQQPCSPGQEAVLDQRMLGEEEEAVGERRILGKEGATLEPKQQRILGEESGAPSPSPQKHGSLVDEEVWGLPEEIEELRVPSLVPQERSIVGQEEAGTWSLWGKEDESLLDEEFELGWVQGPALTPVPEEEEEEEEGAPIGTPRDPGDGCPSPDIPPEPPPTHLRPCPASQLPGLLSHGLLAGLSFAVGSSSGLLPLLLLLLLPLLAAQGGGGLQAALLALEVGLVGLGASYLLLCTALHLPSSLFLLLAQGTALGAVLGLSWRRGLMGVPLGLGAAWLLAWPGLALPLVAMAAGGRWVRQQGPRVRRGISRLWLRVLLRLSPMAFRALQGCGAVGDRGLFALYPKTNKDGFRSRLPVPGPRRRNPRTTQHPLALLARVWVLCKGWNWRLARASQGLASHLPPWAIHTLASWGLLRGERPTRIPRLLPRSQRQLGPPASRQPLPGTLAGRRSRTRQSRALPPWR
Put plainly: Inhibition of TAO2 Lys2 labeling site in human A-375 cells at 0.5 uM by KiNativ Profiling analysis relative to control. The assay is classed as cell-based.

Assay [6] concerns the target TRAF2 and NCK-interacting protein kinase (Homo sapiens) (UniProt Q9UKE5). Put plainly: Inhibition of ZC2/TNIK Lys1 labeling site in human A-375 cells at 0.5 uM by KiNativ Profiling analysis relative to control. The assay is classed as cell-based.

Where only a bound is given, the exact number is not on record here.

Sequence of Serine/threonine-protein kinase B-raf (P15056 whole entry): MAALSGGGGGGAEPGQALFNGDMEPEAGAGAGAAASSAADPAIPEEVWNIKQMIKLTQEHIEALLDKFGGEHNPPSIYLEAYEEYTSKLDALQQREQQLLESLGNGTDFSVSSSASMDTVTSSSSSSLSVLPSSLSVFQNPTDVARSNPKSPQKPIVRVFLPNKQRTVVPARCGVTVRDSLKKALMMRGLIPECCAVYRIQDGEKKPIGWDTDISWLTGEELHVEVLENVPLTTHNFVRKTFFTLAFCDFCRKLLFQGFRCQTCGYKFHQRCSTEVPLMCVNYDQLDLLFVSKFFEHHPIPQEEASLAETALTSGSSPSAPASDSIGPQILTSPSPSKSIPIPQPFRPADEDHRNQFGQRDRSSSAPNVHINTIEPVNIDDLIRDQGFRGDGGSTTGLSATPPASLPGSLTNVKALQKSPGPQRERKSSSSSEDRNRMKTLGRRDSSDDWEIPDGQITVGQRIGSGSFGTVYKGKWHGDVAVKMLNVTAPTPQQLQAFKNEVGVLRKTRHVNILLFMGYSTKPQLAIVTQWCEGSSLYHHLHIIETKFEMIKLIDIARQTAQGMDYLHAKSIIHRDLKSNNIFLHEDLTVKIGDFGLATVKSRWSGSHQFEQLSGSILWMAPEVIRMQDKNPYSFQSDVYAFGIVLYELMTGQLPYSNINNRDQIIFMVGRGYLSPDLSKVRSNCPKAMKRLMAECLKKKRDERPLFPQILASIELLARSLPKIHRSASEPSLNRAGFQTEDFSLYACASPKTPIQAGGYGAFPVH
Sequence of Serine/threonine-protein kinase MRCK beta (Homo sapiens) (Q9Y5S2 whole entry): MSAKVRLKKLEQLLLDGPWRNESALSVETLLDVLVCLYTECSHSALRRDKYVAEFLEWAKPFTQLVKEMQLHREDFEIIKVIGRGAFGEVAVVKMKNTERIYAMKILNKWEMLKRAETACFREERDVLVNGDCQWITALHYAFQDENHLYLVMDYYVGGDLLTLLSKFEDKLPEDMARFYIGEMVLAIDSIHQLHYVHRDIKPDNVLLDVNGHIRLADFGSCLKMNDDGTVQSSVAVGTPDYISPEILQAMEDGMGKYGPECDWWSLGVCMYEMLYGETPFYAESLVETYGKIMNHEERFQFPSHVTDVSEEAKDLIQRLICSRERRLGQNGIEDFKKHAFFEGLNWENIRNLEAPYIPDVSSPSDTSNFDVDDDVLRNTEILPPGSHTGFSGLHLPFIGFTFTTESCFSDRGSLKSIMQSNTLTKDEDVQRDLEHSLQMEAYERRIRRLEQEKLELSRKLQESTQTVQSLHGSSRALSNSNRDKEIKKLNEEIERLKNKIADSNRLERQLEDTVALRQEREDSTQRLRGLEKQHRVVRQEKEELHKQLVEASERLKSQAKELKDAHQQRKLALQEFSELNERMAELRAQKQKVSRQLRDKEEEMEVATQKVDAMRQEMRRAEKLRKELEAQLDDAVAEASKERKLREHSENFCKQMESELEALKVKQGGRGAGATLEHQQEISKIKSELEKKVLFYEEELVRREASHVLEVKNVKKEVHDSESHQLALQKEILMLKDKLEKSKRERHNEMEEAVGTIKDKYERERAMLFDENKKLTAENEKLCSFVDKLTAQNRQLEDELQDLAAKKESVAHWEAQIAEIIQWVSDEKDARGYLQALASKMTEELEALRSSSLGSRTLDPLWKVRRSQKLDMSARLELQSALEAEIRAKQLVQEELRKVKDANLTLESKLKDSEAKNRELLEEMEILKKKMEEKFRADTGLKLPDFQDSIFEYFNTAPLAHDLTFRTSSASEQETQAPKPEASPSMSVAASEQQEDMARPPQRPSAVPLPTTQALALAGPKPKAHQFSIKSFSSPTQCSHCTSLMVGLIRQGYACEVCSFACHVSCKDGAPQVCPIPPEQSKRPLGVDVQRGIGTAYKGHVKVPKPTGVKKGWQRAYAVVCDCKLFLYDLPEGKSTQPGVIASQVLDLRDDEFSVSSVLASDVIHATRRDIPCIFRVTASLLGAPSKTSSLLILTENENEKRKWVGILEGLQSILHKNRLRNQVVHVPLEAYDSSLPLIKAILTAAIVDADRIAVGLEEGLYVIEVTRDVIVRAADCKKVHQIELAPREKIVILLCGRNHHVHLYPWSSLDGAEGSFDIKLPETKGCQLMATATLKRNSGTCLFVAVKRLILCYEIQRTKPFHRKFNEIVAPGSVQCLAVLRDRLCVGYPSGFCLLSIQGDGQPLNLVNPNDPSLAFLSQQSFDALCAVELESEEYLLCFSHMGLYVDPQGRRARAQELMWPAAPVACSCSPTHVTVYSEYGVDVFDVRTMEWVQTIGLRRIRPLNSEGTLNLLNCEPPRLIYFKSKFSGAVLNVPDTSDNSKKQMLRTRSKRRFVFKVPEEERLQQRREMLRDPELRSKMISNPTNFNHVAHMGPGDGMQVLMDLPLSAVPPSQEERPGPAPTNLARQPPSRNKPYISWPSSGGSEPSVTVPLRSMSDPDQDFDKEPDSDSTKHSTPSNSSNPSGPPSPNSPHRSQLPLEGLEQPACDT
Sequence of TRAF2 and NCK-interacting protein kinase (Homo sapiens) (Q9UKE5 whole entry, looked up): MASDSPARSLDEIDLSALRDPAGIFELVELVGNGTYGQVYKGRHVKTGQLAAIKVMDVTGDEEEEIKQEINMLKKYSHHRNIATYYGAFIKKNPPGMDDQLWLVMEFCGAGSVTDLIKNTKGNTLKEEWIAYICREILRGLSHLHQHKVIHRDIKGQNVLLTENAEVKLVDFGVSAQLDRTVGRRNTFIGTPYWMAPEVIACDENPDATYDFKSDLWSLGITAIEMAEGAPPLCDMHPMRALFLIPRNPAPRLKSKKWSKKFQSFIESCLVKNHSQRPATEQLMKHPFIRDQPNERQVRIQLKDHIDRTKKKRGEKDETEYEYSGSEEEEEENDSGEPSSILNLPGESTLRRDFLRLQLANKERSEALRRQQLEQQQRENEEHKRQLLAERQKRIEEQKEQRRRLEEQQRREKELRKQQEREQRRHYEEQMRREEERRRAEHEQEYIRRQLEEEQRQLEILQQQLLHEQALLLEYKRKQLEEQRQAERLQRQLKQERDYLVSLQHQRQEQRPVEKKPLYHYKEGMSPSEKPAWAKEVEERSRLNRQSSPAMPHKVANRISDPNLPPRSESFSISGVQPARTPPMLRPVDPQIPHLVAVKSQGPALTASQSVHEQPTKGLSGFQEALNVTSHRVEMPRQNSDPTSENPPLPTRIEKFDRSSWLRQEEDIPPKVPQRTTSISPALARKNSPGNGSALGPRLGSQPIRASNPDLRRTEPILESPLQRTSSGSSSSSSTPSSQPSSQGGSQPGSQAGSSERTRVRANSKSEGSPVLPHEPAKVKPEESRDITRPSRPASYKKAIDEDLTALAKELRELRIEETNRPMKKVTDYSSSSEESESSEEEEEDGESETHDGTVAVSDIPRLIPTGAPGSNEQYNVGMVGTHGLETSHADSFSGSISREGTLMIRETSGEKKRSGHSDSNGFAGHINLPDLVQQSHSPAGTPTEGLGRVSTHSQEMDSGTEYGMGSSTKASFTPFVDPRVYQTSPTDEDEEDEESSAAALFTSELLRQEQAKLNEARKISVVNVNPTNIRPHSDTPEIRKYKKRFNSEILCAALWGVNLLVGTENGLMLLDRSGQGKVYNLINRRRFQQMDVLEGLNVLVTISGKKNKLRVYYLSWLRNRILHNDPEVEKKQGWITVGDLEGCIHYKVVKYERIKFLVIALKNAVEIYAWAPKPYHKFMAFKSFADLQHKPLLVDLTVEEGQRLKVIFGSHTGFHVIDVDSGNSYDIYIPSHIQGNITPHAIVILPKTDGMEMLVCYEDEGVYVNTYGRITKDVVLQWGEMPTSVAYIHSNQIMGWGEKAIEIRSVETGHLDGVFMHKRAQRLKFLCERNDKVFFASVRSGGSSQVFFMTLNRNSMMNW

The inhibition is the change of the read-out against control, counted positive when it falls. Usually IC50 stands for the concentration that gives 50% inhibition. Turning to `CCN1CCN(Cc2ccc(NC(=O)c3ccc(C)c(/C=C/c4cnc5[nH]ccc5c4OC)c3)cc2C(F)(F)F)CC1`, the inhibition in assay [1] amounted to 7.3%; in assay [3] it was 36.9%; in assay [4], 52.7%; in assay [5], 37.1%; in assay [6], 74.9%. Moreover, in assay [2], the half-inhibitory concentration (IC50) was greater than 10 µM.

On to `CCN1CCN(Cc2ccc(NC(=O)c3ccc(C)c(Oc4ccnc5[nH]ccc45)c3)cc2C(F)(F)F)CC1`, for which the inhibition is -3% in assay [1]; 5% in assay [3]; greater than 94% in assay [4]; 42.8% in assay [5]; 77.9% in assay [6]. In assay [2], this compound registered a half-inhibitory concentration (IC50) greater than 10 µM.

(Values after ChEMBL document CHEMBL5696442, “Discovery of type II inhibitors of TGFβ-activated kinase 1 (TAK1) and mitogen-activated protein kinase kinase kinase kinase 2 (MAP4K2)” (J Med Chem, 2015).)
